Biological target: NLRP3 (Homo sapiens, UniProt Q96P20)
Assay: THP-1 cells pyroptosis assay
Type: cell-based
Design: Seed THP-1 cells (25,000 cells/well) containing 1.0 μg/ml LPS; host or cells: THP-1 cells, LPS-primed, nigericin-stimulated
Conditions: LPS 1 μg/ml, nigericin 5 μM, resazurin read-out
Protocol: THP-1 cells (ATCC #TIB-202) were grown in RPMI containing L-glutamine (Gibco #11835) supplemented with 1 mM sodium pyruvate (Sigma #S8636) and penicillin (100 units/ml)/streptomycin (0.1 mg/ml) (Sigma #P4333) in 10% Fetal Bovine Serum (FBS) (Sigma #F0804). The cells were routinely passaged and grown to confluency (˜10^6 cells/ml). On the day of the experiment, THP-1 cells were harvested and resuspended into RPMI medium (without FBS). The cells were then counted and viability (>90%) checked by Trypan blue (Sigma #T8154). Appropriate dilutions were made to give a concentration of 625,000 cells/ml. To this diluted cell solution was added LPS (Sigma #L4524) to give a 1 μg/ml Final Assay Concentration (FAC). 40 μl of the final preparation was aliquoted into each well of a 96-well plate. The plate thus prepared was used for compound screening.
The following method step-by-step assay was followed for compound screening. • 1. Seed THP-1 cells (25,000 cells/well) containing 1.0 μg/ml LPS in 40 μl of RPMI medium (without FBS) in 96-well, black walled, clear bottom cell culture plates coated with poly-D-lysine (VWR #734-0317) • 2. Add 5 μl compound (8 points half-log dilution, with 10 μM top dose) or vehicle (DMSO 0.1% FAC) to the appropriate wells • 3. Incubate for 3 hrs at 37° C. and 5% CO2 • 4. Add 5 μl nigericin (Sigma #N7143) (FAC 5 μM) to all wells • 5. Incubate for 1 hr at 37° C. and 5% CO2 • 6. At the end of the incubation period, spin plates at 300×g for 3 mins and remove supernatant • 7. Then add 50 μl of resazurin (Sigma #R7017) (FAC 100 μM resazurin in RPMI medium without FBS) and incubate plates for a further 1-2 hrs at 37° C. and 5% CO2 • 8. Plates were read in an Envision reader at Ex 560 nm and Em 590 nm • 9. IC50 data is fitted to a non-linear regression equation (log inhibitor vs response-variable slope 4-parameters) 96-Well Plate Map

NLRP3, sequence (Q96P20 whole entry): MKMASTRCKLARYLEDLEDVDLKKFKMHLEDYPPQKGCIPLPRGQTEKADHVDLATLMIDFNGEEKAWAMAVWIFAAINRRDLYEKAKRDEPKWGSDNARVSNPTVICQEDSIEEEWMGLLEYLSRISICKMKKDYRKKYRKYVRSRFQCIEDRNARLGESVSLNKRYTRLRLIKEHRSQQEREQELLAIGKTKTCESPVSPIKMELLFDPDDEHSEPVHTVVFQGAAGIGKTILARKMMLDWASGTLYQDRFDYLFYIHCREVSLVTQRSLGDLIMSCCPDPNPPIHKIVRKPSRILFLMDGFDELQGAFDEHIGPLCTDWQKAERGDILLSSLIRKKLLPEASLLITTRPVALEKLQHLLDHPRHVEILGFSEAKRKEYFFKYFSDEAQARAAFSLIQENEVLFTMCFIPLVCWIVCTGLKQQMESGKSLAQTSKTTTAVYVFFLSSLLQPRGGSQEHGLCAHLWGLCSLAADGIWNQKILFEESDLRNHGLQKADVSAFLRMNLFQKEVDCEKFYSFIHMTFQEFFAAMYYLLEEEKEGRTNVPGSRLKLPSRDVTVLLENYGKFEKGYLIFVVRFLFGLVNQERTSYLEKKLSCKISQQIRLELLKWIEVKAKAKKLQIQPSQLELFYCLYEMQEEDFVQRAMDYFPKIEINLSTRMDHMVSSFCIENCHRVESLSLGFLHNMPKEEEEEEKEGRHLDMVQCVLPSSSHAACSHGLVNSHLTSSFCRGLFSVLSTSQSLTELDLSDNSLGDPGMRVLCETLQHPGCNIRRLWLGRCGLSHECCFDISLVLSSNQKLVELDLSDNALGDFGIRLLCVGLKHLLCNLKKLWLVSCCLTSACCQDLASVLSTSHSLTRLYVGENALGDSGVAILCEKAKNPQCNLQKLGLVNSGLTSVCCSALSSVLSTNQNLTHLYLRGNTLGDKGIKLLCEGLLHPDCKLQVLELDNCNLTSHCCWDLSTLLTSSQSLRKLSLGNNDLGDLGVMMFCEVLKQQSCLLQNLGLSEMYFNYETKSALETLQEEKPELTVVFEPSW

`CC(C)c1cc(F)cc(C(C)C)c1NC(=O)NS(=O)(=O)c1ccn(C[C@@H](C)O)n1` [Example 27, (R)—N-((4-Fluoro-2,6-diisopropylphenyl)carbamoyl)-1-(2-hydroxypropyl)-1H-pyrazole-3-sulfonamide] and `CC(C)c1cc(F)cc(C(C)C)c1NC(=O)NS(=O)(=O)c1cc(C2(O)COC2)n(C(C)C)n1` [Example 43, N-((4-Fluoro-2,6-diisopropylphenyl)carbamoyl)-5-(3-hydroxyoxetan-3-yl)-1-isopropyl-1H-pyrazole-3-sulfonamide] fall in the same range of IC50: 640 to 2560 nM for the first, 640 to 2560 nM for the second.

`CCn1nc(S(=O)(=O)NC(=O)Nc2c(C(C)C)cc(F)cc2C(C)C)cc1C1(O)COC1` [Example 44, 1-Ethyl-N-((4-fluoro-2,6-diisopropylphenyl)carbamoyl)-5-(3-hydroxyoxetan-3-yl)-1H-pyrazole-3-sulfonamide] and `COC1(c2cc(S(=O)(=O)NC(=O)Nc3c(C(C)C)cc(F)cc3C(C)C)nn2C)COC1` [Example 52, N-((4-Fluoro-2,6-diisopropylphenyl)carbamoyl)-5-(3-methoxyoxetan-3-yl)-1-methyl-1H-pyrazole-3-sulfonamide] fall in the same range of IC50: 160 to 640 nM for the first, 160 to 640 nM for the second.

`CC(C)c1cc(F)cc(C(C)C)c1NC(=O)NS(=O)(=O)c1cc(C2(O)CCOCC2)n(C)n1` [Example 54, N-((4-Fluoro-2,6-diisopropylphenyl)carbamoyl)-5-(4-hydroxytetrahydro-2H-pyran-4-yl)-1-methyl-1H-pyrazole-3-sulfonamide] and `CC(C)c1cccc(C(C)C)c1NC(=O)NS(=O)(=O)c1cc(C(=O)N2CCOCC2)n(C)n1` [Example 67, N-((2,6-Diisopropylphenyl)carbamoyl)-1-methyl-5-(morpholine-4-carbonyl)-1H-pyrazole-3-sulfonamide] fall in the same range of IC50: 640 to 2560 nM for the first, 640 to 2560 nM for the second.

First: CN(CCO)C(=O)c1cc(S(=O)(=O)NC(=O)Nc2c3c(cc4c2CCC4)CCC3)nn1C [Example 59, 3-(N-((1,2,3,5,6,7-Hexahydro-s-indacen-4-yl)carbamoyl)sulfamoyl)-N-(2-hydroxyethyl)-N,1-dimethyl-1H-pyrazole-5-carboxamide]
Second: CN(CC(O)CO)C(=O)c1cc(S(=O)(=O)NC(=O)Nc2c3c(cc4c2CCC4)CCC3)nn1C (stereo not drawn) [Example 65, N-(2,3-Dihydroxypropyl)-3-(N-((1,2,3,5,6,7-hexahydro-s-indacen-4-yl)carbamoyl)sulfamoyl)-N,1-dimethyl-1H-pyrazole-5-carboxamide]
The IC50 of the first is lower: 40 to 160 nM for the first, 640 to 2560 nM for the second. The first is the more potent here.

First: CN(C(=O)c1cc(S(=O)(=O)NC(=O)Nc2c3c(cc4c2CCC4)CCC3)nn1C)C1CCOCC1 [Example 60, 3-(N-((1,2,3,5,6,7-Hexahydro-s-indacen-4-yl)carbamoyl)sulfamoyl)-N,1-dimethyl-N-(tetrahydro-2H-pyran-4-yl)-1H-pyrazole-5-carboxamide]
Second: CN(C(=O)c1cc(S(=O)(=O)NC(=O)Nc2c3c(cc4c2CCC4)CCC3)nn1C)C1COC1 [Example 63, 3-(N-((1,2,3,5,6,7-Hexahydro-s-indacen-4-yl)carbamoyl)sulfamoyl)-N,1-dimethyl-N-(oxetan-3-yl)-1H-pyrazole-5-carboxamide]
The IC50 of the first is higher: 2560 to 10000 nM for the first, 640 to 2560 nM for the second. The second is the more potent here.

Compared with `COCCN(C)C(=O)c1cc(S(=O)(=O)NC(=O)Nc2c(C(C)C)cccc2C(C)C)nn1C` [Example 68, 3-(N-((2,6-Diisopropylphenyl)carbamoyl)sulfamoyl)-N-(2-methoxyethyl)-N,1-dimethyl-1H-pyrazole-5-carboxamide], `CC(C)c1cccc(C(C)C)c1NC(=O)NS(=O)(=O)c1cc(C(=O)N(C)CCO)n(C)n1` [Example 83, 3-(N-((2,6-Diisopropylphenyl)carbamoyl)sulfamoyl)-N-(2-hydroxyethyl)-N,1-dimethyl-1H-pyrazole-5-carboxamide] is lower in IC50: 2560 to 10000 nM for the first, 640 to 2560 nM for the second. The second is the more potent here.

`COCCN(CCOC)C(=O)c1cc(S(=O)(=O)NC(=O)Nc2c(C(C)C)cccc2C(C)C)nn1C` [Example 69, 3-(N-((2,6-Diisopropylphenyl)carbamoyl)sulfamoyl)-N,N-bis(2-methoxyethyl)-1-methyl-1H-pyrazole-5-carboxamide] and `COCCNC(=O)c1cc(S(=O)(=O)NC(=O)Nc2c3c(cc4c2CCC4)CCC3)nn1C` [Example 85, 3-(N-((1,2,3,5,6,7-Hexahydro-s-indacen-4-yl)carbamoyl)sulfamoyl)-N-(2-methoxyethyl)-1-methyl-1H-pyrazole-5-carboxamide] fall in the same range of IC50: 2560 to 10000 nM for the first, 2560 to 10000 nM for the second.

First: Cn1nc(S(=O)(=O)NC(=O)Nc2c3c(cc4c2CCC4)CCC3)cc1C(=O)N1CCC(O)CC1 [Example 70, N-((1,2,3,5,6,7-Hexahydro-s-indacen-4-yl)carbamoyl)-5-(4-hydroxypiperidine-1-carbonyl)-1-methyl-1H-pyrazole-3-sulfonamide]
Second: Cn1nc(S(=O)(=O)NC(=O)Nc2c3c(cc4c2CCC4)CCC3)cc1C(=O)N1CCOCC1 [Example 74, N-((1,2,3,5,6,7-Hexahydro-s-indacen-4-yl)carbamoyl)-1-methyl-5-(morpholine-4-carbonyl)-1H-pyrazole-3-sulfonamide]
The IC50 of the first is higher: 2560 to 10000 nM for the first, 640 to 2560 nM for the second. The second is the more potent here.

`COC1CCN(C(=O)c2cc(S(=O)(=O)NC(=O)Nc3c4c(cc5c3CCC5)CCC4)nn2C)C1` (stereo not drawn) [Example 71, N-((1,2,3,5,6,7-Hexahydro-s-indacen-4-yl)carbamoyl)-5-(3-methoxypyrrolidine-1-carbonyl)-1-methyl-1H-pyrazole-3-sulfonamide] and `Cn1nc(S(=O)(=O)NC(=O)Nc2c3c(cc4c2CCC4)CCC3)cc1C(=O)NCCO` [Example 84, 3-(N-((1,2,3,5,6,7-Hexahydro-s-indacen-4-yl)carbamoyl)sulfamoyl)-N-(2-hydroxyethyl)-1-methyl-1H-pyrazole-5-carboxamide] fall in the same range of IC50: 2560 to 10000 nM for the first, 2560 to 10000 nM for the second.

`CC(C)(O)Cn1cc(S(=O)(=O)NC(=O)Nc2c3c(cc4c2CCC4)CCC3)cn1` [Example 88, N-((1,2,3,5,6,7-Hexahydro-s-indacen-4-yl)carbamoyl)-1-(2-hydroxy-2-methylpropyl)-1H-pyrazole-4-sulfonamide] and `C[C@@H](O)Cn1cc(S(=O)(=O)NC(=O)Nc2c3c(cc4c2CCC4)CCC3)cn1` [Example 89, (R)—N-((1,2,3,5,6,7-Hexahydro-s-indacen-4-yl)carbamoyl)-1-(2-hydroxypropyl)-1H-pyrazole-4-sulfonamide] fall in the same range of IC50: 640 to 2560 nM for the first, 640 to 2560 nM for the second.

First: O=C(Nc1c2c(cc3c1CCC3)CCC2)NS(=O)(=O)c1cnn(C2CCOCC2)c1 [Example 99]
Second: O=C(Nc1c2c(cc3c1CCC3)CCC2)NS(=O)(=O)c1cnn(C2CCOC2)c1 (stereo not drawn) [Example 100]
The IC50 of the first is higher: 2560 to 10000 nM for the first, 640 to 2560 nM for the second. The second is the more potent here.

First: COCCn1cc(S(=O)(=O)NC(=O)Nc2c3c(cc4c2CCC4)CCC3)cn1 [Example 101]
Second: O=C(Nc1c2c(cc3c1CCC3)CCC2)NS(=O)(=O)c1ccn(C2COCC2O)n1 (stereo not drawn) [Example 105]
The IC50 of the first is higher: 640 to 2560 nM for the first, 160 to 640 nM for the second. The second is the more potent here.

System: not listed separately
Assay: PK protocol (intravenous and oral administration)
Type: in vivo, male Sprague Dawley rats
Conditions: male, Sprague Dawley, plasma; rat, intravenous, dose 1 mg/kg
Protocol: Pharmacokinetic parameters were determined in male Sprague Dawley rats (Charles River, UK, 250-350 g; or Vital River Laboratory Animal Technology Co Ltd, Beijing, China, 7-9 weeks old). Animals were individually housed during the study and maintained under a 12 h light/dark cycle. Animals had free access to food and water except that some orally dosed animals were food deprived overnight prior to the study. For intravenous administration, compounds were formulated as a solution in water or DMSO:PBS [10:90] in 2 mL/kg dosing volume and administered via tail vein. For oral administration, compounds were formulated as a solution in water or DMSO:water [10:90] in 5 mL/kg dosing volume and administered orally.
Serial blood samples (about 120-300 μL) were taken from each animal at each of 8 time-points post dose (0.083, 0.25, 0.5, 1, 2, 4, 8 and 24 h) or at each of 12 time-points post dose (0.03, 0.1, 0.17, 0.25, 0.5, 1, 2, 4, 6, 8, 12 and 24 h) or pre-dose and at each of 9 time-points post dose (0.25, 0.5, 1, 2, 4, 6, 8, 12 and 24 h). Samples were held on ice for no longer than 30 minutes before centrifugation (10,000 rpm (8,385 g) for 3 minutes; or 5,696 rpm (3,000 g) for 15 minutes) for plasma generation. Plasma was frozen on dry ice prior to bioanalysis. PK parameters were generated from LC-MS/MS data using Dotmatics or Phoenix WinNonlin 6.3 software.

In order of rising AUC:
1. CC(C)(O)c1coc(S(=O)(=O)NC(=O)Nc2c3c(cc4c2CCC4)CCC3)c1 [MCC950, reference compound]  611 ng·h/mL
2. CN(CCO)Cc1cc(S(=O)(=O)NC(=O)Nc2c3c(cc4c2CCC4)CCC3)nn1C [Example 77, N-((1,2,3,5,6,7-Hexahydro-s-indacen-4-yl)carbamoyl)-5-(((2-hydroxyethyl)(methyl)amino)methyl)-1-methyl-1H-pyrazole-3-sulfonamide]  2070 ng·h/mL

In order of rising clearance:
1. CN(CCO)Cc1cc(S(=O)(=O)NC(=O)Nc2c3c(cc4c2CCC4)CCC3)nn1C [Example 77, N-((1,2,3,5,6,7-Hexahydro-s-indacen-4-yl)carbamoyl)-5-(((2-hydroxyethyl)(methyl)amino)methyl)-1-methyl-1H-pyrazole-3-sulfonamide]  8.1 mL/min/kg
2. CC(C)(O)c1coc(S(=O)(=O)NC(=O)Nc2c3c(cc4c2CCC4)CCC3)c1 [MCC950, reference compound]  27.8 mL/min/kg

In order of rising half-life:
1. CC(C)(O)c1coc(S(=O)(=O)NC(=O)Nc2c3c(cc4c2CCC4)CCC3)c1 [MCC950, reference compound]  1.2 h
2. CN(CCO)Cc1cc(S(=O)(=O)NC(=O)Nc2c3c(cc4c2CCC4)CCC3)nn1C [Example 77, N-((1,2,3,5,6,7-Hexahydro-s-indacen-4-yl)carbamoyl)-5-(((2-hydroxyethyl)(methyl)amino)methyl)-1-methyl-1H-pyrazole-3-sulfonamide]  14.2 h

Same assay, conditions: male, Sprague Dawley, plasma; rat, intravenous, dose 1 mg/kg; read-out: Vdss

In order of rising Vd:
1. CC(C)(O)c1coc(S(=O)(=O)NC(=O)Nc2c3c(cc4c2CCC4)CCC3)c1 [MCC950, reference compound]  0.53 L/kg
2. CN(CCO)Cc1cc(S(=O)(=O)NC(=O)Nc2c3c(cc4c2CCC4)CCC3)nn1C [Example 77, N-((1,2,3,5,6,7-Hexahydro-s-indacen-4-yl)carbamoyl)-5-(((2-hydroxyethyl)(methyl)amino)methyl)-1-methyl-1H-pyrazole-3-sulfonamide]  1.9 L/kg

Same assay, conditions: male, Sprague Dawley, plasma; rat, intravenous, dose 2.41 mg/kg

With `CN(CCO)C(=O)c1cc(S(=O)(=O)NC(=O)Nc2c3c(cc4c2CCC4)CCC3)nn1C` [Example 59, 3-(N-((1,2,3,5,6,7-Hexahydro-s-indacen-4-yl)carbamoyl)sulfamoyl)-N-(2-hydroxyethyl)-N,1-dimethyl-1H-pyrazole-5-carboxamide] the AUC was 787 ng·h/mL.

With `CN(CCO)C(=O)c1cc(S(=O)(=O)NC(=O)Nc2c3c(cc4c2CCC4)CCC3)nn1C` [Example 59, 3-(N-((1,2,3,5,6,7-Hexahydro-s-indacen-4-yl)carbamoyl)sulfamoyl)-N-(2-hydroxyethyl)-N,1-dimethyl-1H-pyrazole-5-carboxamide] the clearance was 114 mL/min/kg.

For `CN(CCO)C(=O)c1cc(S(=O)(=O)NC(=O)Nc2c3c(cc4c2CCC4)CCC3)nn1C` [Example 59, 3-(N-((1,2,3,5,6,7-Hexahydro-s-indacen-4-yl)carbamoyl)sulfamoyl)-N-(2-hydroxyethyl)-N,1-dimethyl-1H-pyrazole-5-carboxamide], the half-life was 0.3 h.

Same assay, conditions: male, Sprague Dawley, plasma; rat, intravenous, dose 2.41 mg/kg; read-out: Vdss

With `CN(CCO)C(=O)c1cc(S(=O)(=O)NC(=O)Nc2c3c(cc4c2CCC4)CCC3)nn1C` [Example 59, 3-(N-((1,2,3,5,6,7-Hexahydro-s-indacen-4-yl)carbamoyl)sulfamoyl)-N-(2-hydroxyethyl)-N,1-dimethyl-1H-pyrazole-5-carboxamide] the Vd was 2.37 L/kg.

Reference: patent US12012392B2, “Sulfonamide carboxamide compounds” (Inflazome Limited, priority 2017, dated 2024)
